Source: patent US4775692A, “2,5,6,7-tetranor-4,8-inter-m-phenylene PGI2 derivatives” (Toray Industries, Inc., priority 1986, dated 1988)
Converted amounts (≈) assume the structure as drawn. Read-outs that look alike come from different tables or passages of the source.

Legend:
[1] = tested on: gastric acid secretion; test: Inhibiting effect of gastric acid secretion, pylorus-ligated rat (Shay); format: in vivo; conditions: pylorus ligation, injected into duodenum, 5 hours
Procedure: (§1) Inhibiting effect of gastric acid secretion
Under anesthesia by ether, the abdomen of the rat was incised in its median and a pylorus was ligated with silk thread according to Shay (Gastroenterology 5, 43 (1945)). Simultaneously, the compound was injected into a duodenum of the rat and then the incision was closed.
Five hours later, the median-incision of the abdomen was again performed and the esophargus was ligated and then the whole stomach was removed.
The stomach was cut along a greater curvature and the contents thereof was transferred into a graduated centrifuge tube. After centrifugation at 3,000 rpm for 10 min., a volume of a gastric juice was measured and a part of its supernatant was titrated to pH 7 with 0.1N NaOH using a pH-stat (Radio meter).
The mean dose of the compounds which may reduce the volume of gastric juice (ml) and acidity (mEq/ml) of a group of five animals to 50% of that of the controls were designated respectively as ED50.

[2] = tested on: platelet aggregation; test: Inhibiting effect of platelet aggregation (ADP-induced, human platelet-rich plasma); format: cell-based; conditions: human PRP, compound added one minute before ADP
Procedure: Inhibiting effect of platelet aggregation
The blood taken from a human median cubital vein was centrifuged at 800 rpm for 10 min. and a supernatant thereof was used as a platelet-rich plasma (PRP). An aliquot of PRP thus obtained was put into a small tube, to which […] (ADP) was added to induce platelet aggregation. The extent of aggregation was determined by detecting a change in turbidity of the aliquot by an apparatus for measuring platelet aggregation (Rika-Denki, Tokyo). The compound was added one minute before the addition of ADP. The concentration of the compound which may reduce the platelet aggregation, 50% of the control was designated as IC50.

[3] = tested on: corpus of stomach; test: Gastric cytoprotection effect (lesion length / ulcer index after oral 0.2N NaOH); format: in vivo; conditions: 1 h, 30 min before oral 0.2N NaOH, lesion measured one hour later, read-out: Gastric cytoprotection effect ED50 (dose reducing the sore to 50% of control)
Description: Gastric cytoprotection effect
Gastric cytoprotection effect was studied according to the method by A. Robert (Gastroenterology, 77(3), 443, (1979)). Thirty min. after oral administration of the compound according to the invention, 0.2N NaOH was orally applied to the animals.
One hour later, the animals were killed under anesthesia by chloroform. The stomach was removed and fixed in a solution of 5% formalin. After fixation, the stomach was cut along the greater curvature. A total length of the lesion appearing on the corpus of stomach was then measured and served as an ulcer index.
The dose of the compound which may reduce the sore to 50% of that of the control was designated as ED50.
The gastric cytoprotection effects of the compounds according to the invention, which is thus represented by ED50, are summarized in Table 1.

[4] = tested on: blood pressure of the carotid; test: Hypotensive effect (carotid blood pressure, anesthetized rat); format: in vivo; conditions: chloralose-anesthetized Wistar male rat, injected via catheter connected to femoral artery; read-out: Hypotensive effect ED25 (dose reducing blood pressure by 25 mmHg)
Procedure: A catheter was inserted to a carotid of the Wistar male rat under chloralose anesthesia. Another end of the catheter was connected to a polygraph with a pressure-transducer to detect a blood pressure of the carotid. The compound was injected via catheter connected to a femoral artery. The dose of the compound which may reduce the blood pressure in an amount of 25 mmHg was designated as ED25.

[5] = tested on: gastric acid secretion; test: Inhibiting effect of gastric acid secretion, perfused stomach, pentagastrin-stimulated (Ghosh & Schild); format: in vivo, male SD rat; conditions: urethane-anesthetized SD rat, pentagastrin 0.05 μg/kg/min, injected through femoral vein; ratio of area index to that of PGE2
Procedure: as §1
A male SD rat was incised in the abdomen under anesthesia by urethane and the lumen of a stomach was perfused with a physiolosical saline solution through a double-cannula inserted into a lumen of the stomach. A pH of a draining gastric acid was monitored using a pH-meter (M. Ghosh, H. Schild, Br. J. Pharmacol. 13, 54 (1958)). The secretion of gastric acid was stimulated by a continuous infusion of the pentagastrin at a rate of 0.05 μg/kg/min. When the pH of gastric acid became stable value of about 4, the compound was injected through a femoral vein. As an index of the inhibiting effect of gastric acid secretion by the compound was calculated from the area surrounded by the curve drawn by the time course of the pH of gastric acid, from the point increase by the injection of the compound and to the point it came back to baseline. The index thus obtained was compared to that of PGE2 and a ratio therebetween was shown in Table 3, as a relative effect of the compound.

[6] = acidity (mEq/ml) to 50% of controls, read-out: Inhibiting effect of gastric acid secretion ED50, Acidity
[7] = volume (ml) to 50% of controls, read-out: Inhibiting effect of gastric acid secretion ED50, Volume of the gastric juice

IC50 [2] [ng/mL]	Compound	ED50 [1, 6] [µg/kg]	ED50 [1, 7] [µg/kg]	ED50 [3] [µg/kg]	ED (25 mmHg) [4] [µg/kg]	Inhibiting effect of gastric acid secretion, Relative effect (PGE2 = 1) [5]
0.56 (≈ 1.49 nM)	CCCCC[C@H](O)/C=C/[C@@H]1[C@H]2c3cccc(OCC(=O)O)c3O[C@H]2C[C@H]1O (relative stereo) [Compound 156, 2,5,6,7-Tetranor-4-oxa-4,8-inter-m-phenylene PGI2]	2330	330	11.3	0.46	39
6.9 (≈ 16 nM)	CCCCCCC(C)(C)[C@H](O)/C=C/[C@@H]1[C@H]2c3cccc(OCC(=O)O)c3O[C@H]2C[C@H]1O (relative stereo) [Compound 188, 16,16-Dimethyl-20a,20b-dihomo-2,5,6,7-tetranor-4-oxa-4,8-inter-m-phenylene PGI2]	–	–	2.8	1.5	23
8 (≈ 17.9 nM)	CCCCCCCC(C)(C)[C@H](O)/C=C/[C@@H]1[C@H]2c3cccc(OCC(=O)O)c3O[C@H]2C[C@H]1O (relative stereo) [Compound 192, 16,16-Dimethyl-20a,20b,20c-trihomo-2,5,6,7-tetranor-4-oxa-4,8-inter-m-phenylene PGI2]	–	–	3.9	0.59	0.7
0.37 (≈ 0.915 nM)	CCCC(C)(C)C[C@H](O)/C=C/[C@@H]1[C@H]2c3cccc(OCC(=O)O)c3O[C@H]2C[C@H]1O (relative stereo) [Compound 200, 17,17-Dimethyl-2,5,6,7-tetranor-4-oxa-4,8-inter-m-phenylene PGI2]	–	–	3.6	0.16	3.0
0.47 (≈ 1.2 nM)	CCCCC(C)[C@H](O)/C=C/[C@@H]1[C@H]2c3cccc(OCC(=O)O)c3O[C@H]2C[C@H]1O (relative stereo) [Compound 208, 16-Methyl-2,5,6,7-tetranor-4-oxa-4,8-inter-m-phenylene PGI2]	270	140	0.92	0.074	45
30 (≈ 76.8 nM)	CCCCCC(C)(O)/C=C/[C@@H]1[C@H]2c3cccc(OCC(=O)O)c3O[C@H]2C[C@H]1O (relative stereo) [Compound 210, 15-Methyl-2,5,6,7-tetranor-4-oxa-4,8-inter-m-phenylene PGI2]	–	–	109	0.89	13
0.19 (≈ 0.507 nM)	O=C(O)COc1cccc2c1O[C@H]1C[C@@H](O)[C@H](/C=C/[C@@H](O)C3CCCC3)[C@@H]21 (relative stereo) [Compound 230, 15-cyclopentyl-2,5,6,7,16,17,18,19,20-nonanor-4-oxa-4,8-inter-m-phenylene PGI2]	880	330	9.74	0.094	1.4
0.26 (≈ 0.669 nM)	O=C(O)COc1cccc2c1O[C@H]1C[C@@H](O)[C@H](/C=C/[C@@H](O)C3CCCCC3)[C@@H]21 (relative stereo) [Compound 234, 15-cyclohexyl-2,5,6,7,16,17,18,19,20-nonanor-4-oxa-4,8-inter-m-phenylene PGI2]	880	86	12.4	0.34	4.1
0.24 (≈ 0.618 nM)	O=C(O)COc1cccc2c1O[C@H]1C[C@@H](O)[C@H](/C=C/[C@@H](O)CC3CCCC3)[C@@H]21 (relative stereo) [Compound 238, 16-cyclopentyl-2,5,6,7,17,18,19,20-octanor-4-oxa-4,8-inter-m-phenylene PGI2]	–	–	4.9	0.14	11
12 (≈ 29.8 nM)	O=C(O)COc1cccc2c1O[C@H]1C[C@@H](O)[C@H](/C=C/[C@@H](O)CC3CCCCC3)[C@@H]21 (relative stereo) [Compound 241, 16-cyclohexyl-2,5,6,7,17,18,19,20-octanor-4-oxa-4,8-inter-m-phenylene PGI2]	2800	1800	8.17	0.083	2.1
28 (≈ 67.2 nM)	O=C(O)COc1cccc2c1O[C@H]1C[C@@H](O)[C@H](/C=C/[C@@H](O)CCC3CCCCC3)[C@@H]21 (relative stereo) [Compound 244, 17-cyclohexyl-2,5,6,7,18,19,20-heptanor-4-oxa-4,8-inter-m-phenylene PGI2]	> 10000	3500	8.52	0.47	3.9
0.088 (≈ 0.23 nM)	O=C(O)COc1cccc2c1O[C@H]1C[C@@H](O)[C@H](/C=C/[C@@H](O)c3ccccc3)[C@@H]21 (relative stereo) [Compound 256, 15-phenyl-2,5,6,7,16,17,18,19,20-nonanor-4-oxa-4,8-inter-m-phenylene PGI2]	110	44	3.2	0.1	7.8
3.5 (≈ 8.83 nM)	O=C(O)COc1cccc2c1O[C@H]1C[C@@H](O)[C@H](/C=C/[C@@H](O)Cc3ccccc3)[C@@H]21 (relative stereo) [Compound 260, 16-phenyl-2,5,6,7,17,18,19,20-octanor-4-oxa-4,8-inter-m-phenylene PGI2]	4500	5200	51.4	0.98	13
3.4 (≈ 8.28 nM)	O=C(O)COc1cccc2c1O[C@H]1C[C@@H](O)[C@H](/C=C/[C@@H](O)CCc3ccccc3)[C@@H]21 (relative stereo) [Compound 263, 17-phenyl-2,5,6,7,18,19,20-heptanor-4-oxa-4,8-inter-m-phenylene PGI2]	1300	580	13.7	0.23	42
2.3 (≈ 5.8 nM)	Cc1ccccc1[C@H](O)/C=C/[C@@H]1[C@H]2c3cccc(OCC(=O)O)c3O[C@H]2C[C@H]1O (relative stereo) [Compound 266, 15-(o-methylphenyl)-2,5,6,7,16,17,18,19,20-nonanor-4-oxa-4,8-inter-m-phenylene PGI2]	–	–	31.2	0.32	7.2
1.6 (≈ 4.04 nM)	Cc1ccc([C@H](O)/C=C/[C@@H]2[C@H]3c4cccc(OCC(=O)O)c4O[C@H]3C[C@H]2O)cc1 (relative stereo) [Compound 270, 15-(p-methylphenyl)-2,5,6,7,16,17,18,19,20-nonanor-4-oxa-4,8-inter-m-phenylene PGI2]	–	–	25.5	0.12	16
90 (≈ 221 nM)	CCOCC(C)(C)[C@H](O)/C=C/[C@@H]1[C@H]2c3cccc(OCC(=O)O)c3O[C@H]2C[C@H]1O (relative stereo) [Compound 305, 16,16-Dimethyl-2,5,6,7-tetranor-4,18-dioxa-4,8-inter-m-phenylene PGI2]	–	–	13.1	0.55	99
